Experimental data reported in patent US6831196B2, “Urokinase inhibitors” (Curacyte AG, priority 2000, dated 2004).
Counter-ions that a name gives are not always drawn.

target: sc-urokinase (Homo sapiens, UniProt P00749); assay: Inhibiting urokinase: chromogenic substrate Bz-βAla-Gly-Arg-pNA, Ki by Dixon; assay type: biochemical; conditions: 25° C., pH 8.0, mean of at least three determinations
From the text: Inhibiting urokinase with selected compounds in which Y=amidino
Determining the inhibitory effect:
The Ki values are the mean of at least three determinations.

| Ki [µM] | Structure (SMILES) |
| --- | --- |
| > 1000 | CC(C)(C)OC(=O)N[C@H](COCc1ccccc1)C(=O)NCC(=O)NCc1cccc(C(=N)N)c1 [Boc, D, CH2—O—Bz, H, CH2, 3] |
| 23 | CC(C)(C)OC(=O)N[C@@H](CO)C(=O)NCC(=O)NCc1ccc(C(=N)N)cc1 [Boc, L, CH2—OH, H, CH2, 4] |
| > 1000 | N=C(N)c1cccc(CNC(=O)CNC(=O)[C@@H](COCc2ccccc2)NS(=O)(=O)Cc2ccccc2)c1 [Bz—SO2, D, CH2—O—Bz, H, CH2, 3] |
| 0.84 | N=C(N)c1ccc(CNC(=O)CNC(=O)[C@@H](COCc2ccccc2)NS(=O)(=O)Cc2ccccc2)cc1 [Bz—SO2, D, CH2—O—Bz, H, CH2, 4, Benzylsulfonyl-D-Ser(Bz)-Gly-4-amidinobenzyl-amide×TFA] |
| 0.5 | CC(C)COC(=O)OC[C@@H](NS(=O)(=O)Cc1ccccc1)C(=O)NCC(=O)NCc1ccc(C(=N)N)cc1 [Bz—SO2, D, CH2—O—COO-iBu, H, CH2, 4, Benzylsulfonyl-D-Ser(COO-isobutyl)-Gly-4-amidino-benzylamide×HCl] |
| 0.39 | COC(=O)OC[C@@H](NS(=O)(=O)Cc1ccccc1)C(=O)NCC(=O)NCc1ccc(C(=N)N)cc1 [Bz—SO2, D, CH2—O—COO—CH3, H, CH2, 4] |
| 0.048 | N=C(N)c1ccc(CNC(=O)CNC(=O)[C@@H](CO)NS(=O)(=O)CC2CCCCC2)cc1 [CMe—SO2, D, CH2—OH, H, CH2, 4] |
| 12 | N=C(N)c1ccc(CNC(=O)CNC(=O)[C@H](N)CO)cc1 [H, D, CH2—OH, H, CH2, 4] |
| > 1000 | N=C(N)c1cccc(CNC(=O)CNC(=O)[C@H](N)COCc2ccccc2)c1 [H, D, CH2—O—Bz, H, CH2, 3] |
| 21 | N=C(N)c1ccc(CNC(=O)CNC(=O)[C@@H](N)CO)cc1 [H, L, CH2—OH, H, CH2, 4] |
